This is an account of results in paper PMC11672294, “The Antipsychotic Drug Aripiprazole Suppresses Colorectal Cancer by Targeting LAMP2a to Induce RNH1/miR‐99a/mTOR‐Mediated Autophagy and Apoptosis” (Advanced Science, 2024).

Structures can show the parent of a compound that is named as a salt. Starred links: 1 amine or outer side, 2 acyl side, 3 side chain; linkers in the order of their positions; H or OH if unused. Positions of bridges follow the written chain, without caps; N, C: chain ends. Non-standard residues stand in square brackets, D forms with d. Residues, ends and D or L forms follow the SMILES beside them. *: point of attachment. hTyr(3S-OH,4S-OH,3'-OSO3H) = N[C@H](C(=O)O)[C@H](O)[C@@H](O)c1ccc(O)c(OS(=O)(=O)O)c1; pTerphenylCO(4''-OnC5H11) = CCCCCOc1ccc(-c2ccc(-c3ccc(C(=O)*)cc3)cc2)cc1; Orn(4R-OH,5R-OH) = O=C([C@H](C[C@@H](O)[C@@H](O)N[*:3])N[*:1])[*:2]; hTyr(3S-OH,4S-OH) = N[C@H](C(=O)O)[C@H](O)[C@@H](O)c1ccc(O)cc1; Pro(3S-OH,4S-Me) = C[C@H]1CN[C@H](C(=O)O)[C@H]1O; X1 = CCCCCOc1ccc(-c2cc(-c3ccc(C(=O)*)cc3)no2)cc1; Gln(3R-OH) = NC(=O)C[C@@H](O)[C@H](N)C(=O)O; Hyp = O=C(O)[C@@H]1C[C@@H](O)CN1

The first series concerns HT29. Particulars: 72 h, relative to DMSO, 10 µM, Relative cell viability (%). A digest of the protocol: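 Cells were exposed to drug for 72 h, then to WST-1 for 2 h at 37 °C, and absorbance was read at 450 nm as viability against DMSO treatment. In the screen, each compound was applied at 10 µM.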
Take `O=C(O)Cc1ccccc1Nc1c(Cl)cccc1Cl` [Diclofenac Sodium]: the “Relative cell viability (%)” value is 111.9%.
Regarding `COc1ccccc1Oc1c(NS(=O)(=O)c2ccc(C(C)(C)C)cc2)nc(-c2ncccn2)nc1OCCO` [Bosentan Hydrate], the “Relative cell viability (%)” value is given as 83.98%.
For the molecule `COc1ccc(C[C@@H]2c3cc(OC)c(OC)cc3CC[N@+]2(C)CCC(=O)OCCCCCOC(=O)CC[N@@+]2(C)CCc3cc(OC)c(OC)cc3[C@H]2Cc2ccc(OC)c(OC)c2)cc1OC` [Cisatracurium Besylate], the “Relative cell viability (%)” value turned out to be 127.3%.

Still in this series, the particulars now being: 72 h, relative to DMSO; 10 µM.
In the case of `NC(=O)NO` [Hydroxyurea], the “Relative cell viability (%)” value turned out to be 70.34%.
As for `O=C(O)c1cc(=O)[nH]c(=O)[nH]1` [Orotic acid (6-Carboxyuracil)], the “Relative cell viability (%)” value came to 101.4%.
Same read-out and setting: the result for `COc1ncc(-c2ccc3nccc(-c4ccnnc4)c3c2)cc1NS(=O)(=O)c1ccc(F)cc1F` [GSK2126458 (GSK458)] reads 12.62%; that for `CCN(CC)CC#CCOC(=O)C(O)(c1ccccc1)C1CCCCC1` (centres unmarked) [Oxybutynin], 58.9%.
For the molecule `COC(c1ccccc1)(c1ccccc1)[C@H](Oc1nc(C)cc(C)n1)C(=O)O` [Ambrisentan], the “Relative cell viability (%)” value came out at 132.6%.
`CCN1CCCC1CNC(=O)c1cc(S(=O)(=O)CC)c(N)cc1OC` (centres unmarked) [Amisulpride]: the “Relative cell viability (%)” value amounted to 77.41%.
For the molecule `COc1ccc(C(=O)CC(=O)c2ccc(C(C)(C)C)cc2)cc1` [Avobenzone], the “Relative cell viability (%)” value was determined as 117.3%.
Take `Cc1cccc(-c2nn3c(c2-c2ccnc4ccc(C(N)=O)cc24)CCC3)n1` [LY2157299]: the “Relative cell viability (%)” value came out at 106.7%.
In the case of `Oc1c(Br)cc(Br)c2cccnc12` [Broxyquinoline], the “Relative cell viability (%)” value turned out to be 83.94%.
`Cn1ncc(Cl)c1-c1cc(C(=O)N[C@H](CN)Cc2cccc(F)c2)sc1Cl` [Afuresertib (GSK2110183)]: the “Relative cell viability (%)” value was 13.68%.
On to `CCCCCCCCOc1ccccc1C(=O)Nc1ccc(C(=O)OCC[N+](C)(CC)CC)cc1` [Otilonium Bromide], for which the “Relative cell viability (%)” value turned out to be 59.22%.
Consider `COc1cc([C@@H]2c3cc4c(cc3[C@@H](O[C@@H]3O[C@@H]5CO[C@@H](C)O[C@H]5[C@H](O)[C@H]3O)[C@H]3COC(=O)[C@H]23)OCO4)cc(OC)c1O` [Etoposide], for which the “Relative cell viability (%)” value is listed as 117.9%.
Take `CCCCCOc1ccc(-c2cc(-c3ccc(C(=O)N[C@H]4C[C@@H](O)[C@@H](O)NC(=O)[C@@H]5[C@@H](O)[C@@H](C)CN5C(=O)[C@H]([C@H](O)CC(N)=O)NC(=O)[C@H]([C@H](O)[C@@H](O)c5ccc(O)c(OS(=O)(=O)O)c5)NC(=O)[C@@H]5C[C@@H](O)CN5C(=O)[C@H]([C@@H](C)O)NC4=O)cc3)no2)cc1` [Micafungin Sodium] (X1-[Orn(4R-OH,5R-OH)]T[Hyp][hTyr(3S-OH,4S-OH,3'-OSO3H)][Gln(3R-OH)][Pro(3S-OH,4S-Me)]; lactam 1-C): the “Relative cell viability (%)” value is given as 77.58%.
As to `CC(C)Nc1cc(-c2c[nH]c(C(=O)N[C@H](CO)c3cccc(Cl)c3)c2)c(Cl)cn1` [Ulixertinib (BVD-523, VRT752271)], the “Relative cell viability (%)” value is on record as 30.34%.
Same read-out and setting: the result for `O=C1OC(CN2CCOCC2)CN1/N=C/c1ccc([N+](=O)[O-])o1` (centres unmarked) [Furaltadone HCl] reads 75.76%.
With `Cc1nc(Nc2ncc(C(=O)Nc3c(C)cccc3Cl)s2)cc(N2CCN(CCO)CC2)n1` [Dasatinib Monohydrate], the “Relative cell viability (%)” value was 20.09%.
Consider `C[C@@H]1CC[C@H]2[C@@H](C)C(=O)O[C@@H]3O[C@@]4(C)CC[C@@H]1[C@]32OO4` [Artemisinin], for which the “Relative cell viability (%)” value is 110.1%.
On to `CS(=O)(=O)Nc1ccc([N+](=O)[O-])cc1Oc1ccccc1` [Nimesulide], for which the “Relative cell viability (%)” value was 191.7%.
Same read-out and setting: the result for `COc1cc2c(cc1Cc1cccc(Cl)c1F)c(=O)c(C(=O)O)cn2[C@H](CO)C(C)C` [Elvitegravir (GS-9137, JTK-303)] reads 58.4%; that for `NC[C@H](O)c1ccc(O)c(O)c1` [Noradrenaline bitartrate monohydrate], 75.24%; that for `CC(=O)O[C@]1(C(C)=O)CC[C@H]2[C@@H]3C=C(Cl)C4=CC(=O)[C@@H]5C[C@@H]5[C@]4(C)[C@H]3CC[C@@]21C` [Cyproterone Acetate], 132.9%.
The same measure, in the same setting: as for `CCN1CCC[C@H]1CNC(=O)c1cc(S(N)(=O)=O)ccc1OC` [Levosulpiride], the figure is 114.3%.
Regarding `FC(F)(F)c1ccc(CNc2ccc(Cc3c[nH]c4ncc(Cl)cc34)cn2)cn1` [Pexidartinib (PLX3397)], the “Relative cell viability (%)” value came to 54.7%.
In the case of `CC(=O)OCC[N+](C)(C)C` [Acetylcholine Chloride], the “Relative cell viability (%)” value is 93.22%.
On the same count and under the same terms, as for `CC(C(=O)O)c1ccc(CC2CCCC2=O)cc1` (centres unmarked) [Loxoprofen], the figure is 82.91%; as for `CCCc1cc(=O)[nH]c(=S)[nH]1` [Propylthiouracil], 201.3%.
In the case of `Cc1ccc(=O)n(-c2ccccc2)c1` [Pirfenidone], the “Relative cell viability (%)” value is 56.31%.
On the same count and under the same terms, as for `C[C@@H]1O[C@@H](OC[C@H]2O[C@@H](Oc3c(-c4ccc(O)c(O)c4)oc4cc(O)cc(O)c4c3=O)[C@H](O)[C@@H](O)[C@@H]2O)[C@H](O)[C@H](O)[C@H]1O` [Rutin], the figure is 112%; as for `C#C[C@]1(O)CC[C@H]2[C@@H]3CCc4cc(OC)ccc4[C@H]3CC[C@@]21C` [Mestranol], 119.6%; as for `CCCCCOc1ccc(-c2ccc(-c3ccc(C(=O)N[C@H]4C[C@@H](O)[C@@H](O)NC(=O)[C@@H]5[C@@H](O)[C@@H](C)CN5C(=O)[C@H]([C@@H](C)O)NC(=O)[C@H]([C@H](O)[C@@H](O)c5ccc(O)cc5)NC(=O)[C@@H]5C[C@@H](O)CN5C(=O)[C@H]([C@@H](C)O)NC4=O)cc3)cc2)cc1` [Anidulafungin (LY303366)] ({pTerphenylCO(4''-OnC5H11)}-[Orn(4R-OH,5R-OH)]T[Hyp][hTyr(3S-OH,4S-OH)]T[Pro(3S-OH,4S-Me)]; lactam 1-C), 71.21%.
In the case of `O=C1CC[C@@]2(O)[C@H]3Cc4ccc(O)c5c4[C@@]2(CCN3CC2CC2)[C@H]1O5` [Naltrexone HCl], the “Relative cell viability (%)” value came to 104.3%.
In the case of `CO[C@H]1O[C@@H]2O[C@@]3(C)CC[C@H]4[C@H](C)CC[C@@H]([C@H]1C)[C@@]24OO3` [Artemether], the “Relative cell viability (%)” value was determined as 126.1%.
Same read-out and setting: as for `COc1cc2c(cc1OC)CC(=O)N(CCCN(C)C[C@H]1Cc3cc(OC)c(OC)cc31)CC2` [Ivabradine HCl], the figure is 110.8%; as for `C[C@@H]1C[C@H]2[C@@H]3CCC4=CC(=O)C=C[C@]4(C)[C@@]3(F)[C@@H](O)C[C@]2(C)[C@@]1(O)C(=O)CO` [Dexamethasone (DHAP)], 75.86%.
Regarding `O=C(/C=C/C=C/c1ccc2c(c1)OCO2)N1CCCCC1` [Piperine], the “Relative cell viability (%)” value is reported as 104.9%.
On to `CCC(=O)NCC[C@@H]1CCc2ccc3c(c21)CCO3` [Ramelteon], for which the “Relative cell viability (%)” value amounted to 64.95%.
For `N#Cc1ccc(C(c2ccc(C#N)cc2)n2cncn2)cc1` [Letrozole], the “Relative cell viability (%)” value amounted to 82.09%.
Regarding `CN1C[C@@H]2c3ccccc3Oc3ccc(Cl)cc3[C@H]2C1` (racemic) [Asenapine], the “Relative cell viability (%)” value stood at 50.93%.
Take `COC1=C(OC)C(=O)C(CCCCCCCCCCO)=C(C)C1=O` [Idebenone]: the “Relative cell viability (%)” value amounted to 41.75%.
Same read-out and setting: as for `Nc1nccs1` [Aminothiazole], the figure is 93.03%; as for `CCn1cc(C(=O)O)c(=O)c2cc(F)c(N3CCNCC3)nc21` [Enoxacin], 74.15%.
For the molecule `CC1=NN(c2ccccc2)C(=O)C1` [Edaravone], the “Relative cell viability (%)” value turned out to be 97.66%.
Take `CN1CCN(c2ccc(C(=O)Nc3n[nH]c4ccc(Cc5cc(F)cc(F)c5)cc34)c(NC3CCOCC3)c2)CC1` [Entrectinib (RXDX-101)]: the “Relative cell viability (%)” value is listed as 2.137%.
The same measure, in the same setting: as for `COc1cc2c(cc1OC)[C@H]1CC(=O)[C@H](CC(C)C)CN1CC2` (racemic) [Tetrabenazine (Xenazine)], the figure is 97.03%.
As to `C[C@H](NC(=O)C(=O)Nc1ccccc1C(C)(C)C)C(=O)N[C@@H](CC(=O)O)C(=O)COc1c(F)c(F)cc(F)c1F` [Emricasan], the “Relative cell viability (%)” value is recorded as 86.75%.
On to `CNC(=C[N+](=O)[O-])NCCSCc1ccc(CN(C)C)o1` [Ranitidine], for which the “Relative cell viability (%)” value is listed as 97.03%.
Same read-out and setting: the result for `O=C(NC(Cc1cc(=O)[nH]c2ccccc12)C(=O)O)c1ccc(Cl)cc1` (centres unmarked) [Rebamipide] reads 125.4%; that for `COc1ccc(C(=O)N2CCCC2=O)cc1` [Aniracetam], 91.43%.
Consider `CCC[S+]([O-])c1ccc2[nH]c(NC(=O)OC)nc2c1` (centres unmarked) [Albendazole Oxide], for which the “Relative cell viability (%)” value was 65.25%.
Consider `CN1[C@@H]2CC[C@H]1C[C@@H](OC(=O)c1c[nH]c3ccccc13)C2` [Tropisetron], for which the “Relative cell viability (%)” value is on record as 115.5%.
The same measure, in the same setting: the result for `CC(C(=O)O)c1ccc2c(c1)Cc1cccnc1O2` (centres unmarked) [Pranoprofen] reads 135%; that for `COc1ccc([C@H]2CNC(=O)C2)cc1OC1CCCC1` [S- (+)-Rolipram], 107.3%; that for `CC(C)N(CCNC(=O)CN1CCCC1=O)C(C)C` [Pramiracetam], 79.61%.
Turning to `CC(CN1c2ccccc2Sc2ccccc21)N(C)C` (centres unmarked) [Promethazine HCl], the “Relative cell viability (%)” value is recorded as 62.12%.
The same measure, in the same setting: as for `Cc1cccc(C)c1OCC(=O)N[C@@H](Cc1ccccc1)[C@@H](O)C[C@H](Cc1ccccc1)NC(=O)[C@H](C(C)C)N1CCCNC1=O` [Lopinavir], the figure is 55.61%; as for `CC[C@H]1OC(=O)[C@H](C)[C@@H](O[C@H]2C[C@@](C)(OC)[C@@H](O)[C@H](C)O2)[C@H](C)[C@@H](O[C@@H]2O[C@H](C)C[C@H](N(C)C)[C@H]2O)[C@](C)(O)C[C@@H](C)CN(C)[C@H](C)[C@@H](O)[C@]1(C)O` [Azithromycin], 33.47%.
